{
  "source": "patent US20250213606A1",
  "about": "“MEDICINAL AGENT (EMBODIMENTS) AND DEVICE FOR USING SAME” (priority 2022, published 2025)",
  "key": {"[1]": {"tested_on": "laboratory animals and volunteer testers", "experiment": "Effective concentration ranges of the components of the mixture", "assay_type": "in vivo"}, "[2]": {"conditions": "governs risk of condensation in cold conditions; cited from earlier work"}},
  "data": [
    {"smiles": "[Ar]", "note": "[argon]", "values": [
      {"measurement": "range of efficiency with the greatest effect, concentration in a mixture with oxygen", "setting": "[1]; laboratory animals, volunteer testers and foreign sources", "result": "30-70 % by volume"}
    ]},
    {"smiles": "[He]", "note": "[helium]", "values": [
      {"measurement": "effective content providing antihypothermic and antihypoxic effects", "setting": "[1]; in a mixture with oxygen from 21, argon at least 25 % by volume, xenon and krypton, mixture temperature 30 to 70° C.", "result": "at least 40 % by volume"}
    ]},
    {"smiles": "[Kr]", "note": "[krypton]", "values": [
      {"measurement": "critical temperature", "setting": "[2]", "result": 209.35, "unit": "K"}
    ]}
  ]
}
